Measurements reported in paper PMC7323874, “Vancomycin Resistance Is Overcome by Conjugation of Polycationic Peptides” (Angewandte Chemie (International Ed. in English), 2020).
In brackets after ≈: the same amount, converted by molar mass. Where two headings read alike, the source gives them in different places.

Legend:
[1] = tested on: Staphylococcus aureus NCTC 10442; assay: Blocking experiments with Nα,Nε-diacetyl-Lys-D-Ala-D-Ala in microdilution; type: cell-based; conditions: at least 100-fold excess of Nα,Nε-Diacetyl-Lys-D-Ala-D-Ala, pre-incubation minimum 1 hour at room temperature
Protocol: (§1) Antimicrobial testing – Microdilution
(§2) Antimicrobial testing was performed according to CLSI and EUCAST guidelines in microdilution.8-10 Therefore, all tested substances as well as controls were dissolved in water in different concentrations and serially diluted in MHB II (cation adjusted) on the 96-well plate. A logarithmic growing, overnight culture of the respective bacterial strain was used and adjusted to a McFarland corresponding to 1 × 10^8 cfu/ml. Afterwards the bacterial suspension was diluted to 1 ×10^6 cfu/ml and loaded on the 96-well polypropylene plates, resulting in a final bacterial concentration of 5 × 10^5 cfu/ml. After an incubation at 35 ± 1 °C for 18-20 hours (re-controlled after 24 hours) the MIC was determined as the lowest concentration without visible growth as described previously.11 For direct comparison of the tested substances, all results were calculated in mg/ml and mol/ml afterwards.
For blocking experiments with NΑ,NΕ-DIACETYL-LYS-D-ALA-D-ALA the tested substances were incubated directly on the dilution plate with at least 100-fold excess of Nα,Nε-Diacetyl-Lys-D-Ala-D-Ala for a minimum of 1 hour at room temperature. Afterwards, the procedure was performed as described above. As further control substance, the glycopeptide antibiotic teicoplanin was evaluated. […] Resistance development in S. aureus was determined by passaging bacteria in increasing amounts of vancomycin, FU002 or, as control, fusidic acid. In principle, tubes with twofold dilutions of the compounds in 1 ml Muller Hinton broth were inoculated 1:100 with bacterial suspension. The tubes were then incubated for 24 h at 37 °C under shaking. After each passage, the tube with the highest compound concentration showing bacterial growth was used to inoculate the tubes of the next passage (1:100). The tube with the lowest compound concentration showing no growth was defined as the passage MIC. […]
For the validation of possible side effects provoked by the conjugates, the cytotoxic effect of the lead candidate FU002 on human cells was assessed in a colorimetric viability assay. […]

[2] = tested on: Staphylococcus aureus USA300 LAC; assay: microbe, parasite or virus in culture; type: cell-based; conditions: Staphylococcus aureus, MRSA / USA300, 24 h
Protocol: as §1
as §2, with “afterwards. […]” for “afterwards.”
Resistance development study
Resistance development in S. aureus was determined by passaging bacteria in increasing amounts of vancomycin, FU002 or, as control, fusidic acid. In principle, tubes with twofold dilutions of the compounds in 1 ml Muller Hinton broth were inoculated 1:100 with bacterial suspension. The tubes were then incubated for 24 h at 37 °C under shaking. After each passage, the tube with the highest compound concentration showing bacterial growth was used to inoculate the tubes of the next passage (1:100). The tube with the lowest compound concentration showing no growth was defined as the passage MIC. Passaging was stopped after 8 passages.
For the validation of possible side effects provoked by the conjugates, the cytotoxic effect of the lead candidate FU002 on human cells was assessed in a colorimetric viability assay. Different human cell types were used including kidney and liver cell lines as well as freshly isolated peripheral blood cells. Cells were seeded into 96-well microtiter plates at 2 x 10^4 cells/well and cultured overnight (18-24 h) in a […]

Molecule	effect of D-Ala-D-Ala binding motif on antibiotic activity [1]	MIC ([2]; read-out: MIC after 8 passages) [µg/mL]	MIC ([2]; read-out: initial MIC) [µg/mL]
teicoplanin	suppresses the antibiotic activity		
CC(=O)O[C@H]1C[C@@]2(C)[C@@H](C[C@@H](O)[C@H]3[C@@]4(C)CC[C@@H](O)[C@@H](C)[C@@H]4CC[C@@]32C)/C1=C(\CCC=C(C)C)C(=O)O [fusidic acid]		64 (≈ 124 µM)	0.125 (≈ 0.242 µM)
